From the supplement of paper PMC10307832

Tests used:
Assay in all cases: relative viability (nuclei count vs DMSO), 5 days (fraction); higher = more cells survive
PC-14 = test system: PC-14
How it was run: (§1)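 Five library-drug doses in √10 steps were combined with a fixed anchor-drug dose, or a single drug was given alone, by pin tool to lung cancer cell lines in 1536-well plates the day after seeding. Nuclei were stained and counted after 5 days. Relative viability is the nuclei count in treated wells over that in vehicle wells, taken as the median of duplicate plates.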

NCI-H1563 = test system: NCI-H1563
How it was run: as §1

HARA = test system: HARA
How it was run: as §1

LU99A = test system: LU99A
How it was run: as §1

HOP-62 = test system: HOP-62
How it was run: as §1

NCI-H2087 = test system: NCI-H2087
How it was run: as §1

LCLC-97TM1 = test system: LCLC-97TM1
How it was run: as §1

CAL-12T = test system: CAL-12T
How it was run: as §1

HCC-366 = test system: HCC-366
How it was run: as §1

HCC-827 = test system: HCC-827
How it was run: as §1

LC-2-ad = test system: LC-2-ad
How it was run: as §1

COR-L23 = test system: COR-L23
How it was run: as §1

BEN = test system: BEN
How it was run: as §1

HCC-15 = test system: HCC-15
How it was run: as §1

HCC-44 = test system: HCC-44
How it was run: as §1

NCI-H727 = test system: NCI-H727
How it was run: as §1

NCI-H2126 = test system: NCI-H2126
How it was run: as §1

NCI-H2009 = test system: NCI-H2009
How it was run: as §1

COR-L 105 = test system: COR-L 105
How it was run: as §1

NCI-H1993 = test system: NCI-H1993
How it was run: as §1

LXF-289 = test system: LXF-289
How it was run: as §1

PC-3 [JPC-3] = test system: PC-3 [JPC-3]
How it was run: as §1

SK-MES-1 = test system: SK-MES-1
How it was run: as §1

Q: For `CCCCCCCCCCCC1=C(O)C(=O)C=C(O)C1=O` [Embelin] + C[C@]1(O)C[C@@H](c2nc(-c3ccc4ccc(-c5ccccc5)nc4c3)c3c(N)nccn32)C1 [Linsitinib] (partner 1 µM), which relative viability (PC-14; first compound 0.08 µM) is on record?
A: 0.921

Q: And the relative viability (PC-14; first compound 0.8 µM)?
A: 1

Q: And the relative viability (PC-14; first compound 2.53 µM)?
A: 1.06

Q: What about the relative viability (PC-14; first compound 8 µM) of the same molecule?
A: 0.972

Q: What about the relative viability (NCI-H1563; first compound 0.08 µM) of the same molecule?
A: 1.14

Q: What about the relative viability (NCI-H1563; first compound 0.8 µM) of the same molecule?
A: 1.18

Q: What about the relative viability (NCI-H1563; first compound 2.53 µM) of the same molecule?
A: 1.16

Q: And the relative viability (NCI-H1563; first compound 8 µM)?
A: 1.16

Q: And the relative viability (HARA; first compound 0.08 µM)?
A: 0.972

Q: And the relative viability (HARA; first compound 0.8 µM)?
A: 0.914

Q: What about the relative viability (HARA; first compound 2.53 µM) of the same molecule?
A: 0.996

Q: What about the relative viability (HARA; first compound 8 µM) of the same molecule?
A: 1.16

Q: What about the relative viability (LU99A; first compound 0.08 µM) of the same molecule?
A: 0.537

Q: What about the relative viability (LU99A; first compound 0.8 µM) of the same molecule?
A: 0.618

Q: What about the relative viability (LU99A; first compound 2.53 µM) of the same molecule?
A: 0.552

Q: What about the relative viability (LU99A; first compound 8 µM) of the same molecule?
A: 0.472

Q: What about the relative viability (HOP-62; first compound 0.08 µM) of the same molecule?
A: 0.937

Q: And the relative viability (HOP-62; first compound 0.8 µM)?
A: 1.05

Q: What about the relative viability (HOP-62; first compound 2.53 µM) of the same molecule?
A: 1.06

Q: And the relative viability (HOP-62; first compound 8 µM)?
A: 0.96

Q: What about the relative viability (NCI-H2087; first compound 0.08 µM) of the same molecule?
A: 0.998

Q: And the relative viability (NCI-H2087; first compound 0.8 µM)?
A: 0.97

Q: What about the relative viability (NCI-H2087; first compound 2.53 µM) of the same molecule?
A: 1.01

Q: And the relative viability (NCI-H2087; first compound 8 µM)?
A: 0.916

Q: And the relative viability (LCLC-97TM1; first compound 0.8 µM)?
A: 0.239

Q: What about the relative viability (LCLC-97TM1; first compound 2.53 µM) of the same molecule?
A: 0.233

Q: And the relative viability (LCLC-97TM1; first compound 8 µM)?
A: 0.204

Q: What about the relative viability (CAL-12T; first compound 0.08 µM) of the same molecule?
A: 0.783

Q: What about the relative viability (CAL-12T; first compound 0.8 µM) of the same molecule?
A: 0.915

Q: What about the relative viability (CAL-12T; first compound 2.53 µM) of the same molecule?
A: 0.749

Q: What about the relative viability (CAL-12T; first compound 8 µM) of the same molecule?
A: 0.831

Q: And the relative viability (HCC-366; first compound 0.08 µM)?
A: 0.697

Q: And the relative viability (HCC-366; first compound 0.8 µM)?
A: 0.726

Q: What about the relative viability (HCC-366; first compound 2.53 µM) of the same molecule?
A: 0.846

Q: And the relative viability (HCC-366; first compound 8 µM)?
A: 0.49

Q: And the relative viability (HCC-827; first compound 0.08 µM)?
A: 0.997

Q: And the relative viability (HCC-827; first compound 0.8 µM)?
A: 0.949

Q: And the relative viability (HCC-827; first compound 2.53 µM)?
A: 0.992

Q: What about the relative viability (HCC-827; first compound 8 µM) of the same molecule?
A: 1.01

Q: And the relative viability (LC-2-ad; first compound 0.08 µM)?
A: 0.822

Q: And the relative viability (LC-2-ad; first compound 0.8 µM)?
A: 0.891

Q: What about the relative viability (LC-2-ad; first compound 2.53 µM) of the same molecule?
A: 0.526

Q: What about the relative viability (LC-2-ad; first compound 8 µM) of the same molecule?
A: 0.913

Q: And the relative viability (COR-L23; first compound 0.08 µM)?
A: 0.896

Q: And the relative viability (COR-L23; first compound 0.8 µM)?
A: 1.08

Q: And the relative viability (COR-L23; first compound 2.53 µM)?
A: 0.962

Q: What about the relative viability (COR-L23; first compound 8 µM) of the same molecule?
A: 1.05

Q: What about the relative viability (BEN; first compound 0.08 µM) of the same molecule?
A: 0.976

Q: And the relative viability (BEN; first compound 0.8 µM)?
A: 1.25

Q: And the relative viability (BEN; first compound 2.53 µM)?
A: 1.09

Q: And the relative viability (BEN; first compound 8 µM)?
A: 0.898

Q: And the relative viability (HCC-15; first compound 0.08 µM)?
A: 0.922

Q: And the relative viability (HCC-15; first compound 0.8 µM)?
A: 0.895

Q: What about the relative viability (HCC-15; first compound 2.53 µM) of the same molecule?
A: 0.996

Q: And the relative viability (HCC-15; first compound 8 µM)?
A: 0.905

Q: What about the relative viability (HCC-44; first compound 0.08 µM) of the same molecule?
A: 0.739

Q: What about the relative viability (HCC-44; first compound 0.8 µM) of the same molecule?
A: 0.654

Q: And the relative viability (HCC-44; first compound 2.53 µM)?
A: 0.742

Q: And the relative viability (HCC-44; first compound 8 µM)?
A: 0.642

Q: What about the relative viability (NCI-H727; first compound 0.08 µM) of the same molecule?
A: 0.282

Q: And the relative viability (NCI-H727; first compound 0.8 µM)?
A: 0.192

Q: And the relative viability (NCI-H727; first compound 2.53 µM)?
A: 0.307

Q: And the relative viability (NCI-H727; first compound 8 µM)?
A: 0.268

Q: What about the relative viability (NCI-H2126; first compound 0.08 µM) of the same molecule?
A: 0.714

Q: And the relative viability (NCI-H2126; first compound 0.8 µM)?
A: 0.787

Q: And the relative viability (NCI-H2126; first compound 2.53 µM)?
A: 0.746

Q: And the relative viability (NCI-H2126; first compound 8 µM)?
A: 0.676

Q: And the relative viability (NCI-H2009; first compound 0.08 µM)?
A: 1.24

Q: And the relative viability (NCI-H2009; first compound 0.8 µM)?
A: 1.3

Q: And the relative viability (NCI-H2009; first compound 2.53 µM)?
A: 1.21

Q: And the relative viability (NCI-H2009; first compound 8 µM)?
A: 1.12

Q: And the relative viability (COR-L 105; first compound 0.08 µM)?
A: 1.02

Q: What about the relative viability (COR-L 105; first compound 0.8 µM) of the same molecule?
A: 1.33

Q: And the relative viability (COR-L 105; first compound 2.53 µM)?
A: 0.88

Q: What about the relative viability (COR-L 105; first compound 8 µM) of the same molecule?
A: 0.874

Q: And the relative viability (NCI-H1993; first compound 0.08 µM)?
A: 0.734

Q: And the relative viability (NCI-H1993; first compound 0.8 µM)?
A: 0.807

Q: What about the relative viability (NCI-H1993; first compound 2.53 µM) of the same molecule?
A: 0.764

Q: What about the relative viability (NCI-H1993; first compound 8 µM) of the same molecule?
A: 0.771

Q: And the relative viability (LXF-289; first compound 0.08 µM)?
A: 0.991

Q: And the relative viability (LXF-289; first compound 0.8 µM)?
A: 0.957

Q: And the relative viability (LXF-289; first compound 2.53 µM)?
A: 1

Q: And the relative viability (LXF-289; first compound 8 µM)?
A: 1.01

Q: What about the relative viability (PC-3 [JPC-3]; first compound 0.08 µM) of the same molecule?
A: 0.972

Q: What about the relative viability (PC-3 [JPC-3]; first compound 0.8 µM) of the same molecule?
A: 0.967

Q: What about the relative viability (PC-3 [JPC-3]; first compound 2.53 µM) of the same molecule?
A: 0.947

Q: And the relative viability (PC-3 [JPC-3]; first compound 8 µM)?
A: 0.983

Q: What about the relative viability (SK-MES-1; first compound 0.08 µM) of the same molecule?
A: 1.17

Q: What about the relative viability (SK-MES-1; first compound 0.8 µM) of the same molecule?
A: 1.11

Q: And the relative viability (SK-MES-1; first compound 2.53 µM)?
A: 1.17

Q: What about the relative viability (SK-MES-1; first compound 8 µM) of the same molecule?
A: 1.04
